Consider 50 compounds from ChEMBL document CHEMBL1121895, “Pyrazolodiazepines. 3. 4-Aryl-1,6,7,8-tetrahydro-1,3-dialkylpyrazolo[3,4-e][1,4]diazepines as antidepressant agents” (1981).

What all share (format): functional
The species entered for assay [1] is Rattus norvegicus. In words: Time-related potentiation of methamphetamine-induced anorexia in rats at the lowest active dose. The settings on record: read-out: MED.
Assay [2] is filed under the species Rattus norvegicus. The assay is described as follows: Potentiation of Methamphetamine effect for intracranial self stimulation(SS) in rats.
The subject of assay [3] is Rattus norvegicus. In words: Amount of milk ingested after the 15 min methamphetamine-challenges, produced by the compound at 1.25 mg/kg in fasted rats.
Assay [4] has as its system Rattus norvegicus. In words: Amount of milk ingested after the 15 min methamphetamine-challenges, produced by the compound at 5 mg/kg in fasted rats.
Assay [5] deals with Rattus norvegicus. The assay is described as follows: Amount of milk ingested after the 120 min methamphetamine-challenges, produced by the compound at 10 mg/kg in fasted rats.
For assay [6], the system named is Rattus norvegicus. In words: Amount of milk ingested after the 120 min methamphetamine-challenges, produced by the compound at 5 mg/kg in fasted rats.
Assay [7] deals with Rattus norvegicus. In words: Amount of milk ingested after the 15 min methamphetamine-challenges, produced by the compound at 2.5 mg/kg in fasted rats.
Assay [8] relates to Rattus norvegicus. In words: Amount of milk ingested after the 120 min methamphetamine-challenges, produced by the compound at 2.5 mg/kg in fasted rats.
Assay [9] relates to Rattus norvegicus. The assay is described as follows: Amount of milk ingested after the 120 min methamphetamine-challenges, produced by the compound at 1.25 mg/kg in fasted rats.
The subject of assay [10] is Rattus norvegicus. In words: Amount of milk ingested after the 15 min methamphetamine-challenges, produced by the compound at 10 mg/kg in fasted rats.
Assay [11] relates to Rattus norvegicus. In words: Amount of milk ingested after the 15 min methamphetamine-challenges, produced by the compound at 0.625 mg/kg in fasted rats.
The subject of assay [12] is Rattus norvegicus. The assay is described as follows: Amount of milk ingested after the 120 min methamphetamine-challenges, produced by the compound at 0.625 mg/kg in fasted rats.
Assay [13] concerns Rattus norvegicus. The assay is described as follows: Amount of milk ingested after the 15 min methamphetamine-challenges, produced by the compound at 0.312 mg/kg in fasted rats.
Assay [14] deals with Rattus norvegicus. In words: Amount of milk ingested after the 120 min methamphetamine-challenges, produced by the compound at 0.312 mg/kg in fasted rats.

In the case of `Cc1nn(C)c2c1C(c1ccccc1Cl)=NCCN2`, in the assay filed under Rattus norvegicus [1], the minimal effective dose was determined as 2.5 mg/kg. Regarding `Cc1nn(C)c2c1C(c1cccc(Cl)c1)=NC(C)(C)CN2`, the Dose in the assay listed under Rattus norvegicus [2] is 10 mg/kg. Also, the minimal effective dose in the assay listed under Rattus norvegicus [1] is 2.5 mg/kg.

In the case of `Cc1nn(C)c2c1C(c1ccccc1Cl)=NCCN2CCCN(C)C`, the minimal effective dose in the assay filed under Rattus norvegicus [1] was over 10 mg/kg. Still for that read-out and setting: the result for `Cc1nn(C)c2c1C(c1ccc(Cl)c(Cl)c1)=NCCN2` reads 2.5 mg/kg; that for `CCn1nc(C)c2c1NCCN=C2c1cccc(C(F)(F)F)c1`, 0.63 mg/kg. For `Cc1nn(C)c2c1C(c1cccc(Cl)c1C)=NCCN2`, in the assay filed under Rattus norvegicus [2], the Dose came out at 5 mg/kg. Further, the minimal effective dose in the assay listed under Rattus norvegicus [1] turned out to be 1.25 mg/kg. The corresponding values for `Cc1nn(C)c2c1C(c1cccc(Br)c1)=NCCN2` are 5 mg/kg and 0.63 mg/kg. Take `CCc1nn(C)c2c1C(c1cccc(Br)c1)=NCCN2`: the Dose in the assay filed under Rattus norvegicus [2] was determined as 5 mg/kg. Moreover, the minimal effective dose in the assay listed under Rattus norvegicus [1] is 1.25 mg/kg. Consider `Cc1cccc(C2=NC(C)(C)CNc3c2c(C)nn3C)c1`, for which, in the assay listed under Rattus norvegicus [1], the minimal effective dose is over 10 mg/kg. Still for that read-out and setting: the result for `CCc1nn(C)c2c1C(c1cccc(C)c1)=NCCN2` reads 5 mg/kg. In the case of `Cc1nn(C)c2c1C(c1ccccc1)=NCCN2C`, the Dose in the assay listed under Rattus norvegicus [2] is over 10 mg/kg. The minimal effective dose in the assay filed under Rattus norvegicus [1] was found to be 2.5 mg/kg. `Cc1nn(C)c2c1C(c1ccccc1)=NCC1CCCCN21` (stereo unspecified): in the assay listed under Rattus norvegicus [1], the minimal effective dose came to 5 mg/kg. `Cc1nn(C)c2c1C(c1cccc(O)c1)=NCCN2`: the Dose in the assay listed under Rattus norvegicus [2] was found to be 10 mg/kg. For the same compound, the minimal effective dose in the assay filed under Rattus norvegicus [1] worked out at 2.5 mg/kg. For the compound `Cc1ccc(C2=NCCNc3c2c(C)nn3C)cc1`, the minimal effective dose in the assay filed under Rattus norvegicus [1] turned out to be 2.5 mg/kg. The same measure, in the same setting: the result for `COc1ccc(C2=NCCNc3c2c(C)nn3C)cc1` reads over 10 mg/kg. For `Cc1nn(C)c2c1C(c1cccc(Cl)c1)=NCC1CCCCN21` (stereo unspecified), the minimal effective dose in the assay listed under Rattus norvegicus [1] turned out to be 2.5 mg/kg. On the same count and under the same terms, the result for `CC(=O)N1CCN=C(c2cccc(Cl)c2)c2c(C)nn(C)c21` reads over 10 mg/kg; that for `CCN1CCN=C(c2cccc(Cl)c2)c2c(C)nn(C)c21`, 0.63 mg/kg; that for `Cc1n[nH]c2c1C(c1cccc(Cl)c1)=NCCN2`, 2.5 mg/kg. For `Cc1cc(C)cc(C2=NCCNc3c2c(C)nn3C)c1`, the minimal effective dose in the assay filed under Rattus norvegicus [1] is over 10 mg/kg. Take `Cc1nn(C)c2c1C(c1cccc(N)c1)=NCCN2`: the minimal effective dose in the assay listed under Rattus norvegicus [1] is 2.5 mg/kg. For the compound `Cc1nn(C)c2c1C(c1cccc([N+](=O)[O-])c1)=NCCN2`, the minimal effective dose in the assay listed under Rattus norvegicus [1] worked out at 5 mg/kg. On the same count and under the same terms, the result for `Cc1nn(C)c2c1C(c1ccccc1)=NC(C)C(C)N2` (stereo unspecified) reads 10 mg/kg; that for `Cc1nn(C)c2c1C(c1ccc(Cl)cc1)=NCCN2`, 2.5 mg/kg; that for `Cc1nn(C)c2c1C(c1cccc(N=[N+]=[N-])c1)=NCCN2`, 2.5 mg/kg.

As to `CCc1nn(C)c2c1C(c1cccc(F)c1)=NCCN2`, in the assay listed under Rattus norvegicus [1], the minimal effective dose turned out to be 2.5 mg/kg.

As for `Cc1nn(C)c2c1C(c1ccccc1Cl)=NCC(C#N)N2` (stereo unspecified), the minimal effective dose in the assay filed under Rattus norvegicus [1] was over 10 mg/kg. As for `Cc1nn(C)c2c1C(c1cccc(Cl)c1)=NC(C)CN2` (stereo unspecified), in the assay filed under Rattus norvegicus [1], the minimal effective dose was determined as 0.63 mg/kg.

With `Cc1nn(C)c2c1C(c1cccc(Cl)c1)=[N+]([O-])CCN2`, the minimal effective dose in the assay filed under Rattus norvegicus [1] was over 10 mg/kg.

For the compound `Cc1nn(C)c2c1C(c1cccc(Cl)c1)=NCCN2CCCN(C)C`, in the assay listed under Rattus norvegicus [1], the minimal effective dose was over 10 mg/kg. Take `Cc1nn(C)c2c1C(c1cccc(Cl)c1)=NCCN2C`: in the assay filed under Rattus norvegicus [1], the minimal effective dose stood at 0.63 mg/kg. Same read-out and setting: the result for `CCc1nn(C)c2c1C(c1cccc(F)c1)=NCCN2CCCN(C)C` reads over 10 mg/kg. On to `Cc1nn(C)c2c1C(c1cccc(Cl)c1)=NCCN2CCN1CCCC1`, for which the minimal effective dose in the assay listed under Rattus norvegicus [1] is over 10 mg/kg. `Cc1nn(C)c2c1C(c1cccc(F)c1)=NCCN2`: the Dose in the assay listed under Rattus norvegicus [2] is 2.5 mg/kg. Also, in the assay filed under Rattus norvegicus [1], the minimal effective dose was 2.5 mg/kg.

In the case of `Cc1cccc(C2=NCCNc3c2c(C)nn3C)c1`, the Dose in the assay listed under Rattus norvegicus [2] was 10 mg/kg. In the assay listed under Rattus norvegicus [1], the minimal effective dose is 2.5 mg/kg. Consider `Cc1nn(C)c2c1C(c1cccc(Cl)c1)=NCCN2N=O`, for which, in the assay filed under Rattus norvegicus [1], the minimal effective dose came out at 1.25 mg/kg.

For the compound `Cc1nn(C)c2c1C(c1cccc(C(F)(F)F)c1)=NCCN2`, the Dose in the assay listed under Rattus norvegicus [2] came to 1.25 mg/kg. Besides, the minimal effective dose in the assay listed under Rattus norvegicus [1] worked out at 0.63 mg/kg. Take `Cc1ccc(C2=NCCN(CCCN(C)C)c3c2c(C)nn3C)cc1`: the minimal effective dose in the assay listed under Rattus norvegicus [1] was over 10 mg/kg. For `Cc1nn(C)c2c1C(c1cccc(F)c1)=NCCN2CCCN(C)C`, in the assay filed under Rattus norvegicus [1], the minimal effective dose is over 10 mg/kg.

Take `Cc1nn(C)c2c1C(c1ccc(O)cc1)=NCCN2C`: the Dose in the assay listed under Rattus norvegicus [2] was found to be 5 mg/kg. Further, the minimal effective dose in the assay filed under Rattus norvegicus [1] came out at 2.5 mg/kg. In the case of `Cc1nn(C)c2c1C(c1ccccc1)=NCCN2CCCN(C)C`, the minimal effective dose in the assay listed under Rattus norvegicus [1] is over 10 mg/kg.

Take `Cc1cccc(C2=NCCN(CCCN(C)C)c3c2c(C)nn3C)c1`: in the assay filed under Rattus norvegicus [1], the minimal effective dose was over 10 mg/kg.

Turning to `Cc1ccc(C)c(C2=NCCNc3c2c(C)nn3C)c1`, the minimal effective dose in the assay listed under Rattus norvegicus [1] is over 10 mg/kg. Consider `Cc1nn(C)c2c1C(c1ccccc1Cl)=NCCN2C`, for which the minimal effective dose in the assay listed under Rattus norvegicus [1] worked out at 2.5 mg/kg. Take `COc1cc(OC)cc(C2=NCCNc3c2c(C)nn3C)c1`: the Dose in the assay filed under Rattus norvegicus [2] came out at 10 mg/kg. Moreover, the minimal effective dose in the assay listed under Rattus norvegicus [1] came to 2.5 mg/kg. Turning to `Cc1nn(C)c2c1C(c1cccc(C#N)c1)=NCCN2`, in the assay filed under Rattus norvegicus [1], the minimal effective dose was 1.25 mg/kg. Take `CCn1nc(C)c2c1N(C)CCN=C2c1ccccc1Cl`: in the assay filed under Rattus norvegicus [2], the Dose was over 10 mg/kg. Moreover, the minimal effective dose in the assay listed under Rattus norvegicus [1] stood at 5 mg/kg. Turning to `Cc1nn(C)c2c1C(c1ccccc1)=NCCN2.Cl`, the minimal effective dose in the assay filed under Rattus norvegicus [1] was determined as 2.5 mg/kg. For `CN(C)CCCN1c2ccccc2CCc2ccccc21` [IMIPRAMINE], the Amount in the assay on Rattus norvegicus [3] was determined as 2.7 mL; in the assay on Rattus norvegicus [4], 0.5 mL; in the assay on Rattus norvegicus [5], 0 mL; in the assay on Rattus norvegicus [6] it was 0.1 mL; in the assay with Rattus norvegicus [7], 3.3 mL; in the assay on Rattus norvegicus [8], 2.2 mL. Besides, the Amount with Rattus norvegicus [9] stood at 4.8 mL; in the assay with Rattus norvegicus [10], 0 mL; with Rattus norvegicus [11], 4 mL; in the assay with Rattus norvegicus [12] it was 3.3 mL. The Dose in the assay listed under Rattus norvegicus [2] was 1.25 mg/kg. The minimal effective dose in the assay listed under Rattus norvegicus [1] worked out at 2.5 mg/kg. As to `Cc1nn(C)c2c1C(c1cccc(Cl)c1)=NCCN2` [ZOMETAPINE], the Amount in the assay with Rattus norvegicus [3] was 1.7 mL; with Rattus norvegicus [4], 0.1 mL; with Rattus norvegicus [5], 0.1 mL; in the assay with Rattus norvegicus [6] it was 0.1 mL; in the assay with Rattus norvegicus [7], 0 mL; in the assay on Rattus norvegicus [8], 0.2 mL. For the same compound, the Amount came to 4.2 mL with Rattus norvegicus [13]; 0.2 mL with Rattus norvegicus [9]; 0 mL in the assay on Rattus norvegicus [10]; 3.6 mL with Rattus norvegicus [14]; 1.1 mL in the assay on Rattus norvegicus [11]; 0.5 mL in the assay with Rattus norvegicus [12]. In the assay filed under Rattus norvegicus [2], the Dose came to 1.25 mg/kg. Besides, the minimal effective dose in the assay listed under Rattus norvegicus [1] came to 0.63 mg/kg.
